Source: patent US20150306094A1, “TRANS-4--N,N-DIMETHYLCARBAMOYL-CYCLOHEXYLAMINE FOR TREATING NEGATIVE SYMPTOMS OF SCHIZOPHRENIA” (RICHTER GEDEON NYRT., priority 2012, published 2015)
“Also recorded” adds a separate entry of the source.

Tested on: patients with schizophrenia
Test: international, multicenter, double-blind, placebo- and risperidone-controlled, fixed-dose clinical study
Format: in vivo, human
Conditions: for improvement on the PANSS factor score for negative symptoms, subpopulation with predominantly negative symptoms compared to ITT population: 6 week period, risperidone 4 mg/day, FIG. 1-4
Description: In the clinical study beside the ITT (intent to treat) population which included the total number of the patients, a subgroup was identified including patients with predominantly negative symptoms. This subgroup was identical with the patient subpopulation showing severe negative symptoms defined by Lenert et al. (Schizophrenia Research 71 (2004) 155-165). Patients showing severe negative symptoms were separated into two groups: State 4 and State 6 (definitions are described in Example). State 4 and State 6 together represent the patient subpopulation with predominantly negative symptoms.
The term “change from baseline” refers to the change of the value of the PANSS factor score for negative symptoms compared to the value registered before treatment started (at the baseline visit). The values were calculated using least squares method. The least squares mean (LSM) values resulted from the analysis of covariance (ANCOVA) model with treatment group and study center as factors and the baseline PANSS factor score of negative symptoms as the covariate.
PANSS factor score for negative symptoms: Sum of scores for items 1, 2, 3, 4, and 6 in negative subscale: blunted affect, emotional withdrawal, poor rapport, passive social withdrawal, lack of spontaneity; and items 7 and 16 in general psychopathology subscale: motor retardation, and active social avoidance. Higher scores indicate worsening.
A representative clinical study was conducted as an international, multicenter, double-bind, placebo- and risperidone-controlled, fixed-dose trial. The objective of the study was to evaluate the safety and efficacy of cariprazine fixed doses in patients with schizophrenia. A total of 732 patients were selected using criteria that includes patients who (i) currently meet or have met in the past the Diagnostic and Statistical Manual of Mental Disorders, Fourth Edition, Text Revision (DSM-IV-TR) criteria for schizophrenia (295.30 Paranoid Type, 295.10 Disorganized Type, 295.20 Catatonic Type, or 295.90 Undifferentiated Type) based on the Structured Clinical Interview for DSM-IV (SCID), (ii) have a PANSS total score ≧80 and ≦120, (iii) have a score ≧4 on Clinical Global Impression-Severity scale (iv) have a score ≧4 on at least 2 of the following 4 PANSS positive symptoms: delusions, hallucinatory behavior, conceptual disorganization, and suspiciousness/persecution.
During a 6 week period, 3 doses of cariprazine (1.5 mg/day, 3 mg/day, 4.5 mg/day) was compared to placebo and to an effective dose of risperidone (4.0 mg/day).
Beside the ITT (intent to treat) population which included the total number of the patients, a subgroup was identified including patients with predominantly negative symptoms. […]

Cc1nc2n(c(=O)c1CCN1CCC(c3noc4cc(F)ccc34)CC1)CCCC2 [risperidone, reference compound]
improvement on the PANSS factor score for negative symptoms, subpopulation with predominantly negative symptoms compared to ITT population (cariprazine 1.5, 3, 4.5 mg/day): no difference

CN(C)C(=O)N[C@H]1CC[C@H](CCN2CCN(c3cccc(Cl)c3Cl)CC2)CC1 [cariprazine, trans-4-{2-[4-(2,3-dichlorophenyl)-piperazin-1-yl]-ethyl}-N,N-dimethylcarbamoyl-cyclohexylamine]
improvement on the PANSS factor score for negative symptoms, subpopulation with predominantly negative symptoms compared to ITT population (cariprazine 1.5, 3, 4.5 mg/day): numerically higher improvement | effect on primary negative symptoms of schizophrenia (conclusion from the clinical study of the Example): can be treated effectively; also recorded: direct effect on negative symptoms | effect of extrapyramidal symptoms (EPS) on the change of PANSS factor score for negative symptoms (week 6, patients with predominantly negative symptoms vs subgroup without EPS, cariprazine 1.5, 3, 4.5 mg/day, FIG. 5): does not seem to be influenced by the treatment emergent EPS
